According to ChEMBL document CHEMBL3046298, “Synthesis and metal ion binding activity of methyl 12-amino-13-nitro-7-oxo dehydrodeisopropylabietate derivatives” (Med Chem Res, 2012):

Assay: Metal chelating activity of the compound assessed as formation of copper complex by fluorescence quenching assay
Assay type: physicochemical

SMILES	Ka [L/mol]
COC(=O)[C@]1(C)CCC[C@]2(C)c3cc(Nc4ccc(C)cc4)c([N+](=O)[O-])cc3C(=O)C[C@@H]12	60.7
COC(=O)[C@]1(C)CCC[C@]2(C)c3cc(NCCN)c([N+](=O)[O-])cc3C(=O)C[C@@H]12	97.6
COC(=O)[C@]1(C)CCC[C@]2(C)c3cc(NCCO)c([N+](=O)[O-])cc3C(=O)C[C@@H]12	70.3
COC(=O)[C@]1(C)CCC[C@]2(C)c3cc(Nc4ccc(OC)cc4)c([N+](=O)[O-])cc3C(=O)C[C@@H]12	89.2
CCCNc1cc2c(cc1[N+](=O)[O-])C(=O)C[C@H]1[C@](C)(C(=O)OC)CCC[C@]21C	61.7
CCCCNc1cc2c(cc1[N+](=O)[O-])C(=O)C[C@H]1[C@](C)(C(=O)OC)CCC[C@]21C	137.2
COC(=O)[C@]1(C)CCC[C@]2(C)c3cc(Nc4ccccc4)c([N+](=O)[O-])cc3C(=O)C[C@@H]12	60.7

The next lines start with the values.

Ka [L/mol]	SMILES
81.3	CCNc1cc2c(cc1[N+](=O)[O-])C(=O)C[C@H]1[C@](C)(C(=O)OC)CCC[C@]21C
175.6	COC(=O)[C@]1(C)CCC[C@]2(C)c3cc(NC(C)(C)C)c([N+](=O)[O-])cc3C(=O)C[C@@H]12
107	CNc1cc2c(cc1[N+](=O)[O-])C(=O)C[C@H]1[C@](C)(C(=O)OC)CCC[C@]21C
102.9	COC(=O)[C@]1(C)CCC[C@]2(C)c3cc(NC(C)C)c([N+](=O)[O-])cc3C(=O)C[C@@H]12

Assay: Metal chelating activity of the compound assessed as formation of iron complex by fluorescence quenching assay
Assay type: physicochemical

SMILES	Ka [L/mol]
COC(=O)[C@]1(C)CCC[C@]2(C)c3cc(Nc4ccc(C)cc4)c([N+](=O)[O-])cc3C(=O)C[C@@H]12	122.7
COC(=O)[C@]1(C)CCC[C@]2(C)c3cc(NCCN)c([N+](=O)[O-])cc3C(=O)C[C@@H]12	305.9
COC(=O)[C@]1(C)CCC[C@]2(C)c3cc(NCCO)c([N+](=O)[O-])cc3C(=O)C[C@@H]12	108
COC(=O)[C@]1(C)CCC[C@]2(C)c3cc(Nc4ccc(OC)cc4)c([N+](=O)[O-])cc3C(=O)C[C@@H]12	165
CCCNc1cc2c(cc1[N+](=O)[O-])C(=O)C[C@H]1[C@](C)(C(=O)OC)CCC[C@]21C	135.7
CCCCNc1cc2c(cc1[N+](=O)[O-])C(=O)C[C@H]1[C@](C)(C(=O)OC)CCC[C@]21C	181.7
COC(=O)[C@]1(C)CCC[C@]2(C)c3cc(Nc4ccccc4)c([N+](=O)[O-])cc3C(=O)C[C@@H]12	106.9

More lines, now with the values ahead:

Ka [L/mol]	SMILES
138.3	CCNc1cc2c(cc1[N+](=O)[O-])C(=O)C[C@H]1[C@](C)(C(=O)OC)CCC[C@]21C
103.6	COC(=O)[C@]1(C)CCC[C@]2(C)c3cc(NC(C)(C)C)c([N+](=O)[O-])cc3C(=O)C[C@@H]12
186	CNc1cc2c(cc1[N+](=O)[O-])C(=O)C[C@H]1[C@](C)(C(=O)OC)CCC[C@]21C
168.3	COC(=O)[C@]1(C)CCC[C@]2(C)c3cc(NC(C)C)c([N+](=O)[O-])cc3C(=O)C[C@@H]12
